# Assay: recombinant UMI read abundance after kanamycin selection (control-corrected) (log10(CPM+1)); higher = more efficient recombination; extreme values may be limits of the assay; sequences stand for … in AGTGCAGAGAAAATCGGCCAGTTTTCTCTGCCTGCAGTCCGCATGCCGTGGGACCCCTTGGGTTCTAACCTGTTGCCTAGATTTATGCAGCGGACTGCCTTTCTCCCAAAGTGATAAACCGG…AGGTTGGTTTCACT; site = the 11-nt donor
# Procedure, shortened: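 The measure is log10(CPM+1) for recombinant UMIs. These were PCR-amplified across the donor–target junction and sequenced after Escherichia coli carrying a donor and donor-binding-loop pair library and a target plasmid with T7-inducible IS621 bridge recombinase was plated on IPTG (0.07 mM) plus kanamycin or unselected. CPM were averaged over two replicates and scaled by control-derived factors.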
# 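Further: IS621 bridge recombinase in Escherichia coli cells against a fixed T5 target plasmid.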
row,Sequence,recombinant UMI read abundance (log10)
1,CGTTGTCCATGGACCGGTTTTCCCGGTAATCCGTATTTGTA (site CGTTGTCCTTA),0.0342
2,CGTTTAACATGGACCGGTTTTCCCGGTAATCCGTATTTGGC (site CGTTTAACTGC),0.793
3,CGTTTAGCATGGACCGGTTTTCCCGGTAATCCGTATTTGCT (site CGTTTAGCTAG),0
4,CGTTTAGCATGGACCGGTTTTCCCGGTAATCCGTATTTGCT (site CGTTTCGCTAG),0
5,CGTTTAGCATGGACCGGTTTTCCCGGTAATCCGTATTTGCT (site CGTTTGGCTAG),0
6,CGTTTAGCATGGACCGGTTTTCCCGGTAATCCGTATTTGCT (site CGTTTTGCTAG),0
7,CGTTTGACATGGACCGGTTTTCCCGGTAATCCGTATTTGCT (site CGTTTGACTAG),2.38
8,CGTTTGACATGGACCGGTTTTCCCGGTAATCCGTATTTGCT (site CGTTTGCCTAG),0
9,CGTTTGACATGGACCGGTTTTCCCGGTAATCCGTATTTGCT (site CGTTTGGCTAG),1.12
10,CGTTTGACATGGACCGGTTTTCCCGGTAATCCGTATTTGCT (site CGTTTGTCTAG),0
11,CGTTTGCCATGGACCGGTTTTCCCGGTAATCCGTATTTGCT (site CGTTTGACTAG),0
12,CGTTTGCCATGGACCGGTTTTCCCGGTAATCCGTATTTGCT (site CGTTTGCCTAG),0.79
13,CGTTTGCCATGGACCGGTTTTCCCGGTAATCCGTATTTGCT (site CGTTTGGCTAG),0.00559
14,CGTTTGCCATGGACCGGTTTTCCCGGTAATCCGTATTTGCT (site CGTTTGTCTAG),0
15,CGTTTGGCATGGACCGGTTTTCCCGGTAATCCGTATTTGCG (site CGTTTGGCTAG),0
16,CGTTTGGCATGGACCGGTTTTCCCGGTAATCCGTATTTGCG (site CGTTTGGCTCG),0.142
17,CGTTTGGCATGGACCGGTTTTCCCGGTAATCCGTATTTGCG (site CGTTTGGCTGG),0
18,CGTTTGGCATGGACCGGTTTTCCCGGTAATCCGTATTTGCG (site CGTTTGGCTTG),0
19,CGTTTGGCATGGACCGGTTTTCCCGGTAATCCGTATTTGCT (site AGTTTGGCTAG),0
20,CGTTTGGCATGGACCGGTTTTCCCGGTAATCCGTATTTGCT (site CATTTGGCTAG),0
21,CGTTTGGCATGGACCGGTTTTCCCGGTAATCCGTATTTGCT (site CCTTTGGCTAG),0
22,CGTTTGGCATGGACCGGTTTTCCCGGTAATCCGTATTTGCT (site CGATTGGCTAG),0
23,CGTTTGGCATGGACCGGTTTTCCCGGTAATCCGTATTTGCT (site CGCTTGGCTAG),0
24,CGTTTGGCATGGACCGGTTTTCCCGGTAATCCGTATTTGCT (site CGGTTGGCTAG),0
25,CGTTTGGCATGGACCGGTTTTCCCGGTAATCCGTATTTGCT (site CGTATGGCTAG),0.00345

row,Sequence,recombinant UMI read abundance (log10)
1,CGTTTGGCATGGACCGGTTTTCCCGGTAATCCGTATTTGCT (site CGTCTGGCTAG),0.00793
2,CGTTTGGCATGGACCGGTTTTCCCGGTAATCCGTATTTGCT (site CGTGTGGCTAG),0.00452
3,CGTTTGGCATGGACCGGTTTTCCCGGTAATCCGTATTTGCT (site CGTTAGGCTAG),0
4,CGTTTGGCATGGACCGGTTTTCCCGGTAATCCGTATTTGCT (site CGTTCGGCTAG),0.0122
5,CGTTTGGCATGGACCGGTTTTCCCGGTAATCCGTATTTGCT (site CGTTGGGCTAG),0
6,CGTTTGGCATGGACCGGTTTTCCCGGTAATCCGTATTTGCT (site CGTTTAGCTAG),0
7,CGTTTGGCATGGACCGGTTTTCCCGGTAATCCGTATTTGCT (site CGTTTCGCTAG),0
8,CGTTTGGCATGGACCGGTTTTCCCGGTAATCCGTATTTGCT (site CGTTTGACTAG),0
9,CGTTTGGCATGGACCGGTTTTCCCGGTAATCCGTATTTGCT (site CGTTTGCCTAG),0
10,CGTTTGGCATGGACCGGTTTTCCCGGTAATCCGTATTTGCT (site CGTTTGGCTAA),0.00833
11,CGTTTGGCATGGACCGGTTTTCCCGGTAATCCGTATTTGCT (site CGTTTGGCTAC),0.00533
12,CGTTTGGCATGGACCGGTTTTCCCGGTAATCCGTATTTGCT (site CGTTTGGCTAG),0
13,CGTTTGGCATGGACCGGTTTTCCCGGTAATCCGTATTTGCT (site CGTTTGGCTAT),0.00603
14,CGTTTGGCATGGACCGGTTTTCCCGGTAATCCGTATTTGCT (site CGTTTGGCTCG),0.00605
15,CGTTTGGCATGGACCGGTTTTCCCGGTAATCCGTATTTGCT (site CGTTTGGCTGG),0
16,CGTTTGGCATGGACCGGTTTTCCCGGTAATCCGTATTTGCT (site CGTTTGGCTTG),0
17,CGTTTGGCATGGACCGGTTTTCCCGGTAATCCGTATTTGCT (site CGTTTGTCTAG),0
18,CGTTTGGCATGGACCGGTTTTCCCGGTAATCCGTATTTGCT (site CGTTTTGCTAG),0
19,CGTTTGGCATGGACCGGTTTTCCCGGTAATCCGTATTTGCT (site CTTTTGGCTAG),0
20,CGTTTGGCATGGACCGGTTTTCCCGGTAATCCGTATTTGCT (site GGTTTGGCTAG),0
21,CGTTTGGCATGGACCGGTTTTCCCGGTAATCCGTATTTGCT (site TGTTTGGCTAG),0.00607
22,CTAAATGCATGGACCGGTTTTCCCGGTAATCCGTATTTGAG (site CTAAATGCTCT),2.87
23,CTAAGCACATGGACCGGTTTTCCCGGTAATCCGTATTTGCT (site CTAAGCACTAG),1.9
24,CTAAGCCCATGGACCGGTTTTCCCGGTAATCCGTATTTGAA (site CTAAGCCCTTT),1.25
25,CTAAGCGCATGGACCGGTTTTCCCGGTAATCCGTATTTGAA (site CTAAGCGCTTT),2.02

row,Sequence,recombinant UMI read abundance (log10)
1,CTAAGTCCATGGACCGGTTTTCCCGGTAATCCGTATTTGGA (site CTAAGTCCTTC),0.16
2,CTAATAACATGGACCGGTTTTCCCGGTAATCCGTATTTGAC (site CTAATAACTGT),2.34
3,CTAATAACATGGACCGGTTTTCCCGGTAATCCGTATTTGAC (site CTAGTATCTGT),0
4,CTAATAACATGGACCGGTTTTCCCGGTAATCCGTATTTGAT (site CTAATAACTAT),2.54
5,CTAATGACATGGACCGGTTTTCCCGGTAATCCGTATTTGAC (site CTAATGACTGT),1.47
6,CTAATTTCATGGACCGGTTTTCCCGGTAATCCGTATTTGCC (site CTAATTTCTGG),1.14
7,CTACAGACATGGACCGGTTTTCCCGGTAATCCGTATTTGAG (site CTACAGACTCT),1.81
8,CTACGGCCATGGACCGGTTTTCCCGGTAATCCGTATTTGCC (site CTACGGCCTGG),0.363
9,CTACGGGCATGGACCGGTTTTCCCGGTAATCCGTATTTGAG (site CTACGGGCTCT),1.72
10,CTACTACCATGGACCGGTTTTCCCGGTAATCCGTATTTGCT (site CTACTACCTAG),0.232
11,CTACTACCATGGACCGGTTTTCCCGGTAATCCGTATTTGCT (site CTCCTACCTAG),0.00711
12,CTACTACCATGGACCGGTTTTCCCGGTAATCCGTATTTGCT (site CTGCTACCTAG),0.00524
13,CTACTACCATGGACCGGTTTTCCCGGTAATCCGTATTTGCT (site CTTCTACCTAG),0
14,CTACTACCATGGACCGGTTTTCCCGGTAATCCGTATTTGGA (site CTACTAACTTC),0.0163
15,CTACTACCATGGACCGGTTTTCCCGGTAATCCGTATTTGGA (site CTACTACCTTC),0.00874
16,CTACTACCATGGACCGGTTTTCCCGGTAATCCGTATTTGGA (site CTACTAGCTTC),0.00519
17,CTACTACCATGGACCGGTTTTCCCGGTAATCCGTATTTGGA (site CTACTATCTTC),1.1
18,CTACTAGCATGGACCGGTTTTCCCGGTAATCCGTATTTGAA (site CTACTAGCTTT),1.95
19,CTACTATCATGGACCGGTTTTCCCGGTAATCCGTATTTGAC (site CTAATATCTGT),0
20,CTACTATCATGGACCGGTTTTCCCGGTAATCCGTATTTGAC (site CTACTATCTGT),2.69
21,CTACTATCATGGACCGGTTTTCCCGGTAATCCGTATTTGAC (site CTAGTATCTGT),0
22,CTACTATCATGGACCGGTTTTCCCGGTAATCCGTATTTGAC (site CTATTATCTGT),0.0113
23,CTAGAACCATGGACCGGTTTTCCCGGTAATCCGTATTTGAG (site CTAGAACCTCT),0.09
24,CTAGCAGCATGGACCGGTTTTCCCGGTAATCCGTATTTGAC (site CTAGCAGCTGT),3.18
25,CTAGCAGCATGGACCGGTTTTCCCGGTAATCCGTATTTGAC (site CTAGTATCTGT),0

# — the supplement of paper PMC11208160
